From PMC11099041, “Tissue distribution and retention drives efficacy of rapidly clearing VHL-based PROTACs” (Communications Medicine, 2024)

Key:
[1] = rat, in vivo, iv, 4 mg/kg
Description: Male Sprague Dawley rats, intact or bile-cannulated, were from Envigo RMS, Inc. The animals were acclimated to study conditions for five days prior to dose administration. During acclimation, animals were individually housed in suspended, stainless steel, wire-mesh cages. During the test period, animals were placed in Nalgene cages designed for the collection of urine, feces, and bile. Certified Rodent Diet #2016C or 2016CM (Envigo RMS, Inc.) were provided ad libitum. Water was provided fresh daily. Environmental controls for the animal room were set to maintain a temperature of 20-26 °C, a relative humidity of 50 ± 20%, and a 12-hour light/12-hour dark cycle. […] The vehicle for the IV dose was 20% 2-hydroxypropyl-β-cyclodextrin (HP-β-CD) in 50 mM sodium acetate buffer, pH 4.0. […] The supernatant was removed, and the formulation appeared to be a very slight yellow solution. Stability was checked by HPLC analysis of pre- and post-dose aliquots. Animals were not fasted. The actual amount administered was determined by weighing the dose syringe before and after dose administration. The IV dose of 4 mg/kg was administered via a tail vein. For QWBA rats, one animal/time point was prepared for QWBA at approximately 0.25, 1, 4, 8, 24, 48, 168, and 336 hours. […] Blood was maintained on wet ice until being aliquoted for radioanalysis and centrifuged to obtain plasma. […] Each carcass was drained, blotted dry, placed into an appropriately labeled bag, and placed on dry ice or stored at ~-70 °C for at least 2 hours. The frozen carcasses were embedded in chilled carboxymethylcellulose and frozen into blocks. Embedded carcasses were stored at ~-20 °C in preparation for autoradiographic analysis. The samples were stored at -70 °C before analysis. […] All samples were analyzed for radioactivity in PerkinElmer Model 2910TR liquid scintillation counters for at least 5 min or 100,000 counts. Each sample was homogenized or mixed, as applicable, before radioanalysis in duplicate within 10% of the mean value. Scintillation counting data were automatically corrected for counting efficiency using the external standardization technique and an instrument-stored quench curve generated from a series of sealed quenched standards. […] The samples were allowed to sit at least overnight to allow any foaming to dissipate. Ultima Gold XR scintillation cocktail was added, and the samples were shaken and analyzed by liquid scintillation counting (LSC). Plasma was also analyzed by LSC. The urine, bile, cage rinse, and cage wash samples were mixed by shaking, and duplicate weighed aliquots were analyzed directly by LSC. The mean time concentration profile was generated for each group, and an overall AUC was then calculated with these sparse samples of rats and mice. […] The following parameters were estimated whenever possible: C0, Back-extrapolated concentration at time 0; Cmax, Maximum observed concentration; Tmax, Time of maximum observed concentration; AUC0-t, Area under the concentration-time curve from hour 0 to the last measurable concentration, estimated by the linear trapezoidal rule; AUC0-336, Area under the concentration-time curve from hour 0 to hour 336, estimated by the linear trapezoidal rule; DN AUC0-336, Dose normalized AUC0-336, calculated as AUC0-336/dose level; AUC0-∞, Area under the concentration-time curve from hour 0 to infinity (Day 1 only), calculated as follows: AUC0-∞ = AUC0-t + Ct/λz, where Ct is the last measurable concentration and λz is the elimination rate constant; t1/2, Elimination half-life, determined by ln(2)/λz; CL, Clearance, calculated as dose/AUC0-inf; Vd, Volume of distribution based on the terminal phase, calculated as: dose/(λz × AUC0-∞) Nominal doses and sampling times were used. […] Embedded zeros were excluded from kinetic analysis.

[2] = rat, in vivo
Description: Male Sprague Dawley rats, intact or bile-cannulated, were from Envigo RMS, Inc. The animals were acclimated to study conditions for five days prior to dose administration. During acclimation, animals were individually housed in suspended, stainless steel, wire-mesh cages. During the test period, animals were placed in Nalgene cages designed for the collection of urine, feces, and bile. Certified Rodent Diet #2016C or 2016CM (Envigo RMS, Inc.) were provided ad libitum. Water was provided fresh daily. Environmental controls for the animal room were set to maintain a temperature of 20-26 °C, a relative humidity of 50 ± 20%, and a 12-hour light/12-hour dark cycle. […] Three BDC rats were used for collection of bile, urine, and feces, five intact rats for collection of plasma, blood, urine, feces, and tissues, and eight intact rats for collection of blood and carcasses for QWBA. […] The vehicle for the IV dose was 20% 2-hydroxypropyl-β-cyclodextrin (HP-β-CD) in 50 mM sodium acetate buffer, pH 4.0. […] The supernatant was removed, and the formulation appeared to be a very slight yellow solution. Stability was checked by HPLC analysis of pre- and post-dose aliquots. Animals were not fasted. The actual amount administered was determined by weighing the dose syringe before and after dose administration. The IV dose of 4 mg/kg was administered via a tail vein. For QWBA rats, one animal/time point was prepared for QWBA at approximately 0.25, 1, 4, 8, 24, 48, 168, and 336 hours. […] Blood was maintained on wet ice until being aliquoted for radioanalysis and centrifuged to obtain plasma. […] Each carcass was drained, blotted dry, placed into an appropriately labeled bag, and placed on dry ice or stored at ~-70 °C for at least 2 hours. The frozen carcasses were embedded in chilled carboxymethylcellulose and frozen into blocks. Embedded carcasses were stored at ~-20 °C in preparation for autoradiographic analysis. The samples were stored at -70 °C before analysis. […] Prior to section collection, standards fortified with ^14C radioactivity were placed into the frozen block containing the carcass and were used for monitoring the uniformity of section thickness. Appropriate sections were collected on adhesive tape at 40 μm thickness, in a Leica CM 3600 cryomicrotome in accordance with Covance standard operating procedures. Sections were collected at five levels of interest in the sagittal plane. All major tissues, organs, and biological fluids were represented. Collected sections were dried at ~-20 °C. A section set from each animal was prepared by mounting a representative section from each level of interest. Mounted sections were tightly wrapped with Mylar film and exposed on phosphor-imaging screens along with fortified blood standards for subsequent calibration of the image analysis software. Screens were exposed for 4 days. Exposed screens were scanned using a Typhoon scanner. The autoradiographic standard image data were sampled using InterFocus Imaging Ltd. MCIDTM Analysis software to create a calibrated standard curve. Specified tissues, organs, and fluids were analyzed. […] Tissue concentration data are presented in tabular format. Autoradiographs were annotated. The mean time concentration profile was generated for each group, and an overall AUC was then calculated with these sparse samples of rats and mice. […]

Cc1ncsc1-c1ccc(C(C)NC(=O)C2CC(O)CN2C(=O)C(c2cc(N3CCC(CN4CCC(OC5CC(Oc6cc(N7C8CCC7CN(c7cc(-[14c]9[14cH][14cH][14cH][14cH][14c]9O)nnc7N)C8)ccn6)C5)CC4)CC3)no2)C(C)C)cc1 (stereo not drawn) [14C-A947]
AUC0–∞ in plasma and blood [1]: ~ 18 µg h/g
Cmax of radioactivity in blood [1]: 1.13 µg/g
Cmax of radioactivity in plasma [1]: 1.22 µg/g
Initial decrease of radioactivity in blood and plasma [1]: greater than 90%
Radioactivity in plasma and blood at 336 hours [1]: 3 to 6 ng/g
Terminal clearance (CL) [1]: ~ 5.8 mL/min/kg
Terminal elimination half-life (t1/2) in plasma and blood [1]: 72 to 75 h
Tmax in blood and plasma [1]: 0.25 h
Volume of distribution (Vd) [1]: 23.9 L/kg
Half-life (t1/2) in tissues [2]: 87 to 100 h
Radioactivity t1/2, brain cerebellum [2]: 11 h
Radioactivity t1/2, small intestine [2]: 167 h
Cmax, adrenal glands ([2]; iv, 4 mg/kg): 17 µg/g
Cmax, kidneys ([2]; iv, 4 mg/kg): 22 µg/g
Cmax, liver ([2]; iv, 4 mg/kg): 32 µg/g
Cmax, lungs ([2]; iv, 4 mg/kg): 12 µg/g
Cmax, pancreas ([2]; iv, 4 mg/kg): 9 µg/g
Cmax, salivary glands ([2]; iv, 4 mg/kg): 12 µg/g
Cmax, spleen ([2]; iv, 4 mg/kg): 21 µg/g
Cmax, thyroid gland ([2]; iv, 4 mg/kg): 18 µg/g
t½ ([2]; iv, 4 mg/kg): 111 h
